Reference: patent US9295671B2, “Benzenesulfonamide derivatives of quinoxaline, pharmaceutical compositions thereof, and their use in methods for treating cancer” (NEUPHARMA, INC., priority 2011, dated 2016)

What was measured:
[1] = system: A375 cells; assay: Inhibition of cancer cell growth, MTT assay, A375; type: cell-based; settings: Homo sapiens, A-375, 72 h (Table 4)
Protocol: (§1) Inhibition of cell growth by compounds was measured using MTT assay (Mosmann, T., Journal of Immunological Methods, 1983, 65, 55-63). Tumor cell lines were purchased from ATCC (American Type Culture Collection, Manassas, Va.). All cell lines were maintained in RPMI 1640 (Hyclone) supplemented with 10% fetal bovine serum (FBS, Hyclone), glutamine (2 mM, Hyclone), and antibiotics (penicillin 100 U/mL and streptomycin 50 μg/mL) at 37° C. in a humidified atmosphere of 5% CO2 in air. Taxol (as a positive control, Sigma) and compounds were dissolved in DMSO (Sigma), and the final concentration of DMSO in the medium was 1%. Tumor cells were plated in 96-well plates at densities of about 4000 cells/well of a 96-well plate and allowed to adhere/grow for 24 h. They were then treated with various concentrations of drug for 72 h. 3-(4,5-Dimethylthiazol-2-yl)-2,5-diphenyltetrazolium bromide (MTT, Sigma) was used to determine the number of viable cells at the time of compound addition and the number of cells remaining after 72 h compound exposure. The number of cells remaining after 72 h was compared to the number of viable cells at the time of compound addition by measuring the absorbance at 570 nm, allowing for the calculation of growth inhibition.
(§2) All concentrations of compounds were tested in triplicate and controls were averaged over 4 wells. IC50 was calculated by plotting the concentration of compound vs the percentage of inhibition in treated wells using GraphPad Prism 5.
(§3) The scale utilized in Table 4 is as follows: +++ less than 500 nM; ++ between 500 nM and 1 μM; and + greater than 1 μM.

[2] = target: T1, BRAF V600E (Homo sapiens, UniProt P15056, V600E); assay: Z′-LYTE kinase assay, BRAF V600E (Invitrogen); type: biochemical; settings: Z′-LYTE method
T1 construct: purchased Invitrogen
Protocol: (§4) Inhibitory activities of compounds against BRAF or BRAF V600E were measured by Invitrogen using Z′-LYTE® Method as briefly described in the following.
(§5) 4× Test compounds are dissolved in 1% DMSO. […] ATP solutions are diluted to a 4×ATP working concentration in Kinase Buffer (50 mM HEPES pH 7.5, 0.01% BRIJ-35, 10 mM MgCl2, 1 mM EGTA).
(§6) Reaction starts by 30-second shaking of mixture consisting of 2.5 μL4× test compound, […] and 2.5 μL 4×ATP Solution on Bar-coded Corning, low volume NBS, black 384-well plate (Corning Cat. #3676). Then the mixture is incubated for 60-minute at room temperature for the kinase reaction, followed by addition of 5 μL of a 1:1024 dilution of development reagent A and 30-second plate shake. The mixture is then incubated for another 60-minute at room temperature for development reaction. Finally fluorescence is read by plate reader.

[3] = system: A549 cells; assay: Inhibition of cancer cell growth, MTT assay, A549; type: cell-based; settings: Homo sapiens, 72 h
Protocol: as §1, §2, §3

[4] = target: T2, BRAF (Homo sapiens, UniProt P15056); assay: Z′-LYTE kinase assay, BRAF (Invitrogen); type: biochemical; settings: Z′-LYTE method
T2 construct: purchased Invitrogen
Protocol: as §4, §5, §6

[5] = target: T2, BRAF; assay: LanthaScreen kinase assay, BRAF; type: biochemical; settings: ATP 1 μM
Protocol: (§7) The inhibitory activities of compounds against BRAF or BRAF V600E protein were measured using Invitrogne's LanthaScreen™ kinase assay which is based on fluorescein-labeled MAP2K1 as a substrate. The assay procedure is described as follows.
(§8) The scale utilized in Table 3 is as follows: ++++ less than 50 nM; +++ between 50 and 100 nM; ++ between 100 nM and 1 μM; and + greater than 1 μM.

[6] = target: T1, BRAF V600E; assay: LanthaScreen kinase assay, BRAF V600E; type: biochemical; settings: ATP 10 μM
Protocol: as §7, §8

T2 sequence (P15056 whole entry): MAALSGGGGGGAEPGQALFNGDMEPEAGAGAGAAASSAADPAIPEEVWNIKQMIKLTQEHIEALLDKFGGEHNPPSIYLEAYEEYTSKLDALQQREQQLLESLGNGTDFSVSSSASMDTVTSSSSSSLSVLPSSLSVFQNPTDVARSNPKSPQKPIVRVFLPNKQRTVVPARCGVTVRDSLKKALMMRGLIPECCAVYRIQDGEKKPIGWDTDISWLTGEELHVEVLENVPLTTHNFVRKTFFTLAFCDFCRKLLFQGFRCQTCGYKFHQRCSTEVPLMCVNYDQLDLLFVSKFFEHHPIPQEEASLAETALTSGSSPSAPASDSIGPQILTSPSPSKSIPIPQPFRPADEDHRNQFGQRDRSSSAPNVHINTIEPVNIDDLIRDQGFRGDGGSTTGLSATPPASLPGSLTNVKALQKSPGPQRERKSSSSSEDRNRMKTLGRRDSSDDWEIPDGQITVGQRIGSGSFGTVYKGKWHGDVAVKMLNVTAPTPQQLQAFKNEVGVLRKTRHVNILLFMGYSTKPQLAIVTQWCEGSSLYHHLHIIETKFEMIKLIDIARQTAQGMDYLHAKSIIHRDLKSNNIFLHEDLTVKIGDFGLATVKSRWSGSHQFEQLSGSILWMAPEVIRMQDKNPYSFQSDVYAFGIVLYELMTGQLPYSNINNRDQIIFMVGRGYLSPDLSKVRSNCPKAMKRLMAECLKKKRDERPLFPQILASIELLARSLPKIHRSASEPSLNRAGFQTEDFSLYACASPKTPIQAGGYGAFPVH
T1 sequence (P15056 whole entry V600E): as the sequence (P15056 whole entry) above, with V600E counted along it

| SMILES | IC50 [1] [nM] | inhibition at 1 µM [2] [%] | IC50 [3] [nM] | inhibition at 1 µM [4] [%] | IC50 [5] [nM] | IC50 [6] [nM] |
| --- | --- | --- | --- | --- | --- | --- |
| CCCS(=O)(=O)Nc1cc(F)c(F)c(C(=O)c2ccc3nccnc3c2)c1 [Compound C07, N-(3,4-difluoro-5-(quinoxaline-6-carbonyl)phenyl)propane-1-sulfonamide] | 500 to 1000 | 70 to 89 | > 1000 | < 70 | – | – |
| CCCS(=O)(=O)Nc1ccc(F)c(C(=O)c2ccc3ncc(C#N)nc3c2)c1F [Compound C05, N-(3-(3-cyanoquinoxaline-6-carbonyl)-2,4-difluorophenyl)propane-1-sulfonamide] | 500 to 1000 | > 89 | < 500 | 70 to 89 | – | – |
| CCCS(=O)(=O)Nc1ccc(F)c(C(=O)c2ccc3ncc(N4CCOCC4)nc3c2)c1 [Compound C17, N-(4-fluoro-3-(3-morpholinoquinoxaline-6-carbonyl)phenyl)propane-1-sulfonamide] | > 1000 | < 70 | > 1000 | – | – | – |
| CCCS(=O)(=O)Nc1cc(F)c(F)c(C(=O)c2ccc3nccnc3c2)c1Cl [Compound C14, N-(2-chloro-4,5-difluoro-3-(quinoxaline-6-carbonyl)phenyl)propane-1-sulfonamide] | < 500 | 70 to 89 | > 1000 | > 89 | – | – |
| CCCS(=O)(=O)Nc1cc(F)c(F)c(C(=O)c2ccc3ncc(N(C)CCN(C)C)nc3c2)c1F [Compound C13, N-(3-(3-((2-(dimethylamino)ethyl)(methyl)amino)quinoxaline-6-carbonyl)-2,4,5-trifluorophenyl)propane-1-sulfonamide] | > 1000 | > 89 | > 1000 | > 89 | – | – |
| CCCS(=O)(=O)Nc1ccc(F)c(C(=O)c2ccc3nccnc3c2)c1 [Compound C15, N-(4-fluoro-3-(quinoxaline-6-carbonyl)phenyl)propane-1-sulfonamide] | > 1000 | < 70 | > 1000 | – | – | – |
| CCCS(=O)(=O)Nc1cc(F)c(SC)c(C(=O)c2ccc3nccnc3c2)c1F [Compound C08, N-(2,5-difluoro-4-(methylthio)-3-(quinoxaline-6-carbonyl)phenyl)propane-1-sulfonamide] | > 1000 | < 70 | > 1000 | < 70 | – | – |
| CCCS(=O)(=O)Nc1ccc(F)c(C(=O)c2ccc3ncc(-c4ccc(Cl)cc4)nc3c2)c1F [Compound C02, N-(3-(3-(4-chlorophenyl)quinoxaline-6-carbonyl)-2,4-difluorophenyl)propane-1-sulfonamide] | 500 to 1000 | > 89 | 500 to 1000 | 70 to 89 | – | – |
| CCCS(=O)(=O)Nc1cc(F)cc(C(=O)c2ccc3nccnc3c2)c1 [Compound C16, N-(3-fluoro-5-(quinoxaline-6-carbonyl)phenyl)propane-1-sulfonamide] | > 1000 | < 70 | > 1000 | – | – | – |
| CCCS(=O)(=O)Nc1cc(F)cc(C(=O)c2ccc3ncc(N4CCOCC4)nc3c2)c1 [Compound C18, N-(3-fluoro-5-(3-morpholinoquinoxaline-6-carbonyl)phenyl)propane-1-sulfonamide] | > 1000 | < 70 | > 1000 | – | 50 to 100 | < 50 |
| CCCS(=O)(=O)Nc1ccc(F)c(C(=O)c2ccc3nccnc3c2)c1F [Compound C01, N-(2,4-difluoro-3-(quinoxaline-6-carbonyl)phenyl)propane-1-sulfonamide] | < 500 | > 89 | < 500 | 70 to 89 | – | – |
| CCCS(=O)(=O)Nc1cc(F)c(F)c(C(=O)c2ccc3ncc(N4CCOCC4)nc3c2)c1 [Compound C37, N-(3,4-difluoro-5-(3-morpholinoquinoxaline-6-carbonyl)phenyl)propane-1-sulfonamide] | > 1000 | 70 to 89 | > 1000 | – | 100 to 1000 | 50 to 100 |
